Data published in patent US20140315786A1, “USE OF INTRACELLULAR ENZYMES FOR THE RELEASE OF COVALENTLY LINKED BIOACTIVES” (Catabasis Pharmaceuticals, Inc., priority 2011, published 2014).

Legend:
FAAH-2 = target: T1, FAAH-2 (Homo sapiens, UniProt Q6GMR7); test: Hydrolysis in homogenate of COS-7 cells overexpressed with FAAH-2; assay type: biochemical; details: 5 μM inhibitor
T1 construct: expressed in transfected cells; host or cells: COS-7
T1 sequence (Q6GMR7 1-532): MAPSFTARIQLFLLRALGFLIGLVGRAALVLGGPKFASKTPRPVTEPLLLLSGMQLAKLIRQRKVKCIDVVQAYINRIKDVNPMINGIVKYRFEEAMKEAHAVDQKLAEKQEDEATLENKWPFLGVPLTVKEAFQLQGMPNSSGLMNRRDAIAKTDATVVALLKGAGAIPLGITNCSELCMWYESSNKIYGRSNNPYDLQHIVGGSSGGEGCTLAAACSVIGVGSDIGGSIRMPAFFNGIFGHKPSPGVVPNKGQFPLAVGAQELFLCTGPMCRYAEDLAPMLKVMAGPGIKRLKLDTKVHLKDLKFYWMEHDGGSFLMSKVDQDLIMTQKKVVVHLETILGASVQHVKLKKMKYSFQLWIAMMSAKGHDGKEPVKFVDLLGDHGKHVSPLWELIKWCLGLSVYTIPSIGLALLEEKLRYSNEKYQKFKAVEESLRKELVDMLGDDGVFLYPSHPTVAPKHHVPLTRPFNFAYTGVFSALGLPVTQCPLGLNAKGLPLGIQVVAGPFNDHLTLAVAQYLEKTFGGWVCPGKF
Method: (§1) Hydrolysis experiments using COS-7 cells overexpressed with either FAAH-1 or FAAH-2. […] The next day, cells were transfected, in duplicate, with 10 μg Vector control, flag-FAAH-1 or flag-FAAH-2 plasmids using Lipofectamine 2000 (Invitrogen) according to the manufacturer's protocol. 24 hours post transfection, cells were washed 1× in cold PBS, aspirated dry, and then scraped off the plate in the presence of 0.6 mL reaction buffer (50 mM HEPES, pH 9.0; 1 mM EDTA). Cells were then homogenated using a VWR VDI 12 Adaptable Homogenizer, on ice for 1 minute, and the sample was then clarified by centrifugation at 6,000 g for 5 minutes. The supernatant of this homogenated fraction was then used for FAAH hydrolysis assays. […] Gel densitometry was performed and the % FAAH extracted in each successive lysis conditions was determined according to standard procedures.
(§2) The following hydrolysis experiments were performed using COS-7 cells containing overexpressed FAAH-1 or FAAH-2. […] Briefly, the hydrolysis experiments were carried out in Eppendorf tubes using procedures similar to the one described above. […] At time=0, 1, and 3 h, the protein was precipitated with acetonitrile.

FAAH-1 = target: T2, FAAH-1 (Homo sapiens, UniProt O00519); test: Hydrolysis in homogenate of COS-7 cells overexpressed with FAAH-1; assay type: biochemical; details: 5 μM inhibitor
T2 construct: expressed in transfected cells; host or cells: COS-7
T2 sequence (O00519 1-579): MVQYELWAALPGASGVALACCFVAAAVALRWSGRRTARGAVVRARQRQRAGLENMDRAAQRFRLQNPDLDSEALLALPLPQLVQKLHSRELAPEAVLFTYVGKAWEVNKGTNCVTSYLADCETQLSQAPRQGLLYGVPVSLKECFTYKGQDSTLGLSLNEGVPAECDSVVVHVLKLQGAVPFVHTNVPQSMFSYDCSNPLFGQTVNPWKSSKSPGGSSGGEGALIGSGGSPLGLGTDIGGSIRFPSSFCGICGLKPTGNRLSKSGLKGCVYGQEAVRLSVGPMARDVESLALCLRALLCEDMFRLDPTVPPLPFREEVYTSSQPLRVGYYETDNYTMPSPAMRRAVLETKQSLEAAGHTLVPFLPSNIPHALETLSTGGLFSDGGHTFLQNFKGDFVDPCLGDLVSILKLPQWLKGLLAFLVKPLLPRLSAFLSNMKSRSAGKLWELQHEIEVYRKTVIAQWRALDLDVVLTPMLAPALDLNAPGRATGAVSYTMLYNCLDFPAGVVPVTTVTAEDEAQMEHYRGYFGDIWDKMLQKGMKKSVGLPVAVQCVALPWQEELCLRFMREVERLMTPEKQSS
Method: as §1, §2

[1] = Sprague Dawley rat brain homogenate promoted cleavage of a linked bioactive, with and without FAAH inhibitor URB597; assay type: in vitro ADME; details: FIG. 1; 5 μM inhibitor
Method: The purpose of this assay was to measure the ability of Sprague Dawley rat brain homogenate to hydrolyze a linked bioactive in the presence of fatty acid amide hydrolase inhibitor URB597 (obtained from Cayman Chemical, cat #10046. Brains were harvested from male Sprague Dawley rats and were homogenized 1:4 (grams:mL) in 20 mM 4-(2-hydroxyethyl)-1-piperazineethanesulfonic acid, pH 7.0. Total protein in the rat brain homogenate was determined by a Bradford protein assay.
Linked bioactive was dissolved in methanol at 50 mM. Hydrolysis reactions were conducted with 500 μM of compound in a reaction buffer of 50 mM Hcpcs, 1 mM EDTA, 0.1% Triton X100, pH 8.0, and 1 mg/mL total protein from rat brain homogenate. Reactions were incubated at 37° C. The total reaction volume was 500 μL. Reactions were quenched by transferring 30 μL of reaction into 200 μL of acetonitrile containing 100 ng/mL of internal standard compound, after 0 hours, 1 hour, 2 hours, and 3 hours. […]
Generally, levels of parent linked bioactive and hydrolysis products were measured using an Agilent 1260 HPLC and an Agilent 6410 triple quadrapole mass spectrometer with an electrospray source and using multiple reaction monitoring and relevant mass/charge transitions. […] Injection volumes and flow rates were determined for each specific parent linked bioactive and relative hydrolysis products. […]

IL-1β = IL-1β transcript levels in LPS-stimulated RAW264.7 macrophages; assay type: cell-based; details: Mus musculus; RAW264.7, LPS 100 ng/ml; linked bioactive
Method: RAW264.7 macrophages were seeded at a density of 100,000 cells/well in a 96-well plate in DMEM supplemented with 10% FBS and penicillin:streptomycin. 16 hours later, medium was aspirated and replaced with 90 μL/well of serum-free DMEM. Linked bioactives were brought up in 100% ethanol to a concentration of 100 mM and then diluted 1:100 in 100% FBS for a stock solution consisting of 1 mM compound and 1% ethanol. These stock solutions were then diluted 1:10 in FBS supplemented with 1% ethanol to generate a 100 μM of the linked bioactives. 10 μL was then added to the RAW246.7 cells to generate final concentrations 10 μM of the linked bioactives or 10 μM each bioactive, along with vehicle only control. The linked bioactives were allowed to pre-incubate for 2 hours before stimulation of 100 ng/ml LPS (10 μL of 1 μg/ml LPS was added to each well). Following 3 hours of LPS stimulation, cells were washed once in 1×PBS, aspirated dry, and flash frozen in liquid nitrogen. RNA was then isolated and converted to cDNA using the Cells to cDNA kit (AMBION®) according to the manufacturer's protocol. IL-1β transcript levels were then measured using Taqman primer/probe assay sets (APPLIED BIOSYSTEMS®), normalized to GAPDH using the deltaCt method, and the data expressed relative to vehicle only control.

Structure (SMILES)	effect of inhibitor on hydrolysis of compound I-1, FAAH-2 (FAAH-2; FIG. 9B)	effect of inhibitor on formation of DHA from compound I-1, FAAH-2 (FAAH-2; FIG. 9D)	effect of inhibitor on rate of hydrolysis of compound I-1, FAAH-1 (FAAH-1; FIG. 9A)	effect of inhibitor on rate of formation of DHA from compound I-1, FAAH-1 (FAAH-1; FIG. 9C)	effect of FAAH inhibitor on hydrolysis of the linked bioactive by rat brain homogenate [1]	IC50 (IL-1β) [µM]
NC(=O)c1cccc(-c2cccc(OC(=O)NC3CCCCC3)c2)c1 [URB597]	significantly reduced	more effective in reducing the formation of DHA	significantly reduced	significantly inhibited	essentially eliminated	–
CC/C=C\C/C=C\C/C=C\C/C=C\C/C=C\C/C=C\CCC(=O)N[C@@H](C)C(=O)O[C@H](C)[C@H](NC(=O)CC/C=C\C/C=C\C/C=C\C/C=C\C/C=C\C/C=C\CC)C(=O)OC [VI-2, (2S,3R)-2-((4Z,7Z,10Z,13Z,16Z,19Z)-docosa-4,7,10,13,16,19-hexaenoylamino)-3-[(S)-2-((4Z,7Z,10Z,13Z,16Z,19Z)-docosa-4,7,10,13,16,19-hexaenoylamino)-propionyloxy]-butyric acid methyl ester]	–	–	–	–	–	10
